The target of this experiment is T1, GlyT2 (wtGlyT2) (Rattus norvegicus, UniProt P58295).
T1 sequence (P58295 1-799): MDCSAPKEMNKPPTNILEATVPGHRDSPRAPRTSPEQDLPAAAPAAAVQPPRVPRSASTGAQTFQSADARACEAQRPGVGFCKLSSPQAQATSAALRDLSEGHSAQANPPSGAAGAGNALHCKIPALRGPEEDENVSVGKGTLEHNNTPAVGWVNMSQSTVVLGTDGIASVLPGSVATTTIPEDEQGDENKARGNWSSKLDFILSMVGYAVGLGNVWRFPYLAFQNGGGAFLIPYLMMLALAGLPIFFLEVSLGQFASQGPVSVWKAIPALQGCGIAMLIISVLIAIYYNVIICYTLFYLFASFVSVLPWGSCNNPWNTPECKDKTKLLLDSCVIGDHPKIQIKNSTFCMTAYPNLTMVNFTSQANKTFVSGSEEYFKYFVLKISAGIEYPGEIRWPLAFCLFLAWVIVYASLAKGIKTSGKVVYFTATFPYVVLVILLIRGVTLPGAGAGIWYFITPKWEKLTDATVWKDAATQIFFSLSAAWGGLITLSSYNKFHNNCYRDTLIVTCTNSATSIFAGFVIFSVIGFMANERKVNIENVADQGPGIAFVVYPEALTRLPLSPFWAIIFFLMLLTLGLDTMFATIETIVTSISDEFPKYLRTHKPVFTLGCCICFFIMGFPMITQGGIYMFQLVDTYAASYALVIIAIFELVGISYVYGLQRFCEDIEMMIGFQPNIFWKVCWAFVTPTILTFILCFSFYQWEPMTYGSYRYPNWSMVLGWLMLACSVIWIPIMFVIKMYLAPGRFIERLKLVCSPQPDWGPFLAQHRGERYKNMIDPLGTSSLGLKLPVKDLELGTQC
The experiment can be described thus: [3H]glycine uptake inhibition in transfected COS7 cells. The class given is cell-based.

Data on 1 compound can be found in doi:10.1101/2021.03.24.436638v1 (biorxiv, 2021).

The IC50 is the concentration at which inhibition is half-maximal. Low values mean higher potency, high ones lower potency. On to `CCCCC/C=C\C/C=C\C/C=C\C/C=C\CCCC(=O)NCC(=O)O` [N-arachidonoyl glycine], for which the half-maximal inhibitory concentration (IC50) was found to be 67 ± 23 µM.
